Measured values published in the supplement of paper PMC10307832.

Columns and labels:
Experiment in all cases: relative viability (nuclei count vs DMSO), 5 days (fraction); higher = more cells survive
Everolimus + Vorinostat = compound: CO[C@H]1C[C@@H]2CC[C@@H](C)[C@@](O)(O2)C(=O)C(=O)N2CCCC[C@H]2C(=O)O[C@H]([C@H](C)C[C@@H]2CC[C@@H](OCCO)[C@H](OC)C2)CC(=O)[C@H](C)/C=C(\C)[C@@H](O)[C@@H](OC)C(=O)[C@H](C)C[C@H](C)/C=C/C=C/C=C/1C [Everolimus] + O=C(CCCCCCC(=O)Nc1ccccc1)NO [Vorinostat] (partner 1 µM)
Method in brief: (§1)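 Each reported value is a median over duplicate plates. It expresses relative viability: treated-well nuclei count divided by vehicle-well nuclei count. Lung cancer cell lines in 1536-well plates were dosed by pin tool a day after seeding, alone with one drug or with a fixed anchor-drug dose plus five library-drug doses (not always all listed) in √10 steps, and nuclei were counted after 5 days.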

Everolimus + Pemetrexed = compound: CO[C@H]1C[C@@H]2CC[C@@H](C)[C@@](O)(O2)C(=O)C(=O)N2CCCC[C@H]2C(=O)O[C@H]([C@H](C)C[C@@H]2CC[C@@H](OCCO)[C@H](OC)C2)CC(=O)[C@H](C)/C=C(\C)[C@@H](O)[C@@H](OC)C(=O)[C@H](C)C[C@H](C)/C=C/C=C/C=C/1C [Everolimus] + Nc1nc2[nH]cc(CCc3ccc(C(=O)N[C@@H](CCC(=O)O)C(=O)O)cc3)c2c(=O)[nH]1 [Pemetrexed] (partner 0.2 µM)
Method in brief: as §1

Everolimus + Dasatinib = compound: CO[C@H]1C[C@@H]2CC[C@@H](C)[C@@](O)(O2)C(=O)C(=O)N2CCCC[C@H]2C(=O)O[C@H]([C@H](C)C[C@@H]2CC[C@@H](OCCO)[C@H](OC)C2)CC(=O)[C@H](C)/C=C(\C)[C@@H](O)[C@@H](OC)C(=O)[C@H](C)C[C@H](C)/C=C/C=C/C=C/1C [Everolimus] + Cc1nc(Nc2ncc(C(=O)Nc3c(C)cccc3Cl)s2)cc(N2CCN(CCO)CC2)n1 [Dasatinib] (partner 0.075 µM)
Method in brief: as §1

Everolimus + Palbociclib = compound: CO[C@H]1C[C@@H]2CC[C@@H](C)[C@@](O)(O2)C(=O)C(=O)N2CCCC[C@H]2C(=O)O[C@H]([C@H](C)C[C@@H]2CC[C@@H](OCCO)[C@H](OC)C2)CC(=O)[C@H](C)/C=C(\C)[C@@H](O)[C@@H](OC)C(=O)[C@H](C)C[C@H](C)/C=C/C=C/C=C/1C [Everolimus] + CC(=O)c1c(C)c2cnc(Nc3ccc(N4CCNCC4)cn3)nc2n(C2CCCC2)c1=O [Palbociclib] (partner 0.5 µM)
Method in brief: as §1

Row | Cell Line | relative viability (Everolimus + Vorinostat; first compound 0.01 µM) | relative viability (Everolimus + Vorinostat; first compound 0.03162 µM) | relative viability (Everolimus + Vorinostat; first compound 0.1 µM) | relative viability (Everolimus + Vorinostat; first compound 0.3162 µM) | relative viability (Everolimus + Vorinostat; first compound 1 µM) | relative viability (Everolimus + Pemetrexed; first compound 0.01 µM) | relative viability (Everolimus + Pemetrexed; first compound 0.03162 µM) | relative viability (Everolimus + Pemetrexed; first compound 0.1 µM) | relative viability (Everolimus + Pemetrexed; first compound 0.3162 µM) | relative viability (Everolimus + Pemetrexed; first compound 1 µM) | relative viability (Everolimus + Dasatinib; first compound 0.01 µM) | relative viability (Everolimus + Dasatinib; first compound 0.03162 µM) | relative viability (Everolimus + Dasatinib; first compound 0.1 µM) | relative viability (Everolimus + Dasatinib; first compound 0.3162 µM) | relative viability (Everolimus + Dasatinib; first compound 1 µM) | relative viability (Everolimus + Palbociclib; first compound 0.01 µM) | relative viability (Everolimus + Palbociclib; first compound 0.03162 µM) | relative viability (Everolimus + Palbociclib; first compound 0.1 µM) | relative viability (Everolimus + Palbociclib; first compound 0.3162 µM) | relative viability (Everolimus + Palbociclib; first compound 1 µM)
1 | NCI-H23 | 0.373 | 0.31 | 0.432 | 0.369 | 0.35 | 0.55 | 0.398 | 0.607 | 0.535 | 0.472 | 0.406 | 0.371 | 0.386 | 0.391 | 0.484 | 0.261 | 0.272 | 0.317 | 0.232 | 0.252
2 | NCI-H322M | 0.77 | 0.601 | 0.712 | 0.654 | 0.713 | 0.597 | 0.598 | 0.554 | 0.597 | 0.618 | 0.243 | 0.245 | 0.245 | 0.243 | 0.244 | 0.473 | 0.454 | 0.409 | 0.47 | 0.424
3 | NCI-H358 | 0.431 | 0.434 | 0.388 | 0.417 | 0.47 | 0.173 | 0.162 | 0.162 | 0.158 | 0.153 | 0.115 | 0.138 | 0.133 | 0.0942 | 0.114 | 0.136 | 0.15 | 0.129 | 0.11 | 0.128
4 | NCI-H441 | 0.701 | 0.789 | 0.55 | 0.669 | 0.589 | 0.275 | 0.276 | 0.269 | 0.262 | 0.286 | 0.55 | 0.501 | 0.431 | 0.504 | 0.47 | 0.204 | 0.188 | 0.153 | 0.222 | 0.207
5 | NCI-H460 | 0.621 | 0.617 | 0.486 | 0.625 | 0.372 | 0.058 | 0.0669 | 0.0635 | 0.0608 | 0.072 | 0.38 | 0.38 | 0.323 | 0.203 | 0.298 | 0.104 | 0.165 | 0.123 | 0.0825 | 0.0699
6 | NCI-H520 | 0.455 | 0.373 | 0.439 | 0.394 | 0.387 | 0.349 | 0.318 | 0.324 | 0.255 | 0.325 | 0.118 | 0.143 | 0.176 | 0.144 | 0.176 | 0.155 | 0.182 | 0.194 | 0.14 | 0.194
7 | NCI-H522 | 0.788 | 0.784 | 0.589 | 0.726 | 0.731 | 0.735 | 0.79 | 0.521 | 0.548 | 0.732 | 0.776 | 0.624 | 0.629 | 0.71 | 0.724 | 0.793 | 0.701 | 0.62 | 0.603 | 0.597
8 | NCI-H647 | 0.309 | 0.165 | 0.132 | 0.189 | 0.24 | 0.175 | 0.184 | 0.156 | 0.11 | 0.175 | 0.15 | 0.198 | 0.184 | 0.145 | 0.157 | 0.194 | 0.231 | 0.159 | 0.137 | 0.219
9 | NCI-H650 | 0.324 | 0.212 | 0.293 | 0.212 | 0.254 | 0.645 | 0.606 | 0.626 | 0.516 | 0.591 | 0.363 |  | 0.357 | 0.361 | 0.307 | 0.368 | 0.262 | 0.279 | 0.278 | 0.248
10 | NCI-H661 | 0.607 | 0.687 | 0.671 | 0.678 | 0.555 | 0.805 | 0.763 | 0.863 | 0.793 | 0.664 | 0.694 | 0.56 | 0.575 | 0.615 | 0.472 | 0.334 | 0.321 | 0.328 | 0.31 | 0.295
11 | NCI-H838 | 0.541 | 0.539 | 0.554 | 0.573 | 0.471 | 0.229 | 0.213 | 0.241 | 0.228 | 0.222 | 0.262 | 0.243 | 0.265 | 0.274 | 0.333 | 0.144 | 0.146 | 0.159 | 0.174 | 0.123
12 | NCI-H1355 | 0.385 | 0.331 | 0.341 | 0.365 | 0.295 | 0.747 | 0.553 | 0.521 | 0.502 | 0.486 | 0.436 | 0.402 | 0.315 | 0.334 | 0.316 | 0.229 | 0.233 | 0.207 | 0.213 | 0.21
13 | NCI-H1395 | 0.549 | 0.33 | 0.505 | 0.478 | 0.58 | 0.595 | 0.571 | 0.693 | 0.693 | 0.7 | 0.345 | 0.396 | 0.395 | 0.358 | 0.336 | 0.482 | 0.444 | 0.466 | 0.515 | 0.429
14 | NCI-H1437 | 0.747 | 0.632 | 0.656 | 0.586 | 0.432 | 0.296 | 0.307 | 0.294 | 0.29 | 0.251 | 0.243 | 0.267 | 0.21 | 0.209 | 0.317 | 0.319 | 0.313 | 0.253 | 0.239 | 0.248
15 | NCI-H1650 | 0.396 | 0.388 | 0.29 | 0.365 | 0.383 | 0.451 | 0.359 | 0.325 | 0.442 | 0.414 | 0.288 | 0.225 | 0.263 | 0.315 | 0.295 | 0.305 | 0.293 | 0.304 | 0.278 | 0.238
